Data from patent publication US20040241152A1, “Methods for inducing an immune response with an elevated th1/th2 ratio, by intracellular induction of nfkappab” (priority 2001, published 2004).

B1: CD86: costimulatory molecule incorporated into DNA vaccines (protein, UniProt P42081 24-329, looked up)
T-lymphocyte activation …: APLKIQAYFNETADLPCQFANSQNQSLSELVVFWQDQENLVLNEVYLGKEKFDSVHSKYMGRTSFDSDSWTLRLHNLQIKDKGLYQCIIHHKKPTGMIRIHQMNSELSVLANFSQPEIVPISNITENVYINLTCSSIHGYPEPKKMSVLLRTKNSTIEYDGVMQKSQDNVTELYDVSISLSVSFPDVTSNMTIFCILETDKTRLLSSPFSIELEDPQPPPDHIPWITAVLPTVIICVMVFCLILWKWKKKKRPRNSYKCGTNTMEREESEQTKKREKIHIPERSDEAQRVFKSSKTSSCDKSDTCF
B2: IL-7: cytokine incorporated into DNA vaccines (protein, UniProt P13232 26-177, looked up)
Interleukin-7: DCDIEGKDGKQYESVLMVSIDQLLDSMKEIGSNCLNNEFNFFKRHICDANKEGMFLFRAARKLRQFLKMNSTGDFDLHLLKVSEGTTILLNCTGQVKGRKPAALGEAQPTKSLEENKSLKEQKKLNDLCFLKRLLQEIKTCWNKILMGTKEH
B3: LFA-3: costimulatory molecule incorporated into DNA vaccines (protein, UniProt P19256 29-250, looked up)
Lymphocyte …: FSQQIYGVVYGNVTFHVPSNVPLKEVLWKKQKDKVAELENSEFRAFSSFKNRVYLDTVSGSLTIYNLTSSDEDEYEMESPNITDTMKFFLYVLESLPSPTLTCALTNGSIEVQCMIPEHYNSHRGLIMYSWDCPMEQCKRNSTSIYFKMENDLPQKIQCTLSNPLFNTTSSIILTTCIPSSGHSRHRYALIPIPLAVITTCIVLYMNGILKCDRKPDRTNSN
B4: CD40L: costimulatory molecule incorporated into DNA vaccines (protein, UniProt P29965 113-261, looked up)
CD40 ligand, soluble form: MQKGDQNPQIAAHVISEASSKTTSVLQWAEKGYYTMSNNLVTLENGKQLTVKRQGLYYIYAQVTFCSNREASSQAPFIASLCLKSPGRFERILLRAANTHSSAKPCGQQSIHLGGVFELQPGASVFVNVTDPSQVSHGTGFTSFGLLKL
B5: CD54: costimulatory molecule incorporated into DNA vaccines (protein, UniProt P05362 28-532, looked up)
Intercellular adhesion …: QTSVSPSKVILPRGGSVLVTCSTSCDQPKLLGIETPLPKKELLLPGNNRKVYELSNVQEDSQPMCYSNCPDGQSTAKTFLTVYWTPERVELAPLPSWQPVGKNLTLRCQVEGGAPRANLTVVLLRGEKELKREPAVGEPAEVTTTVLVRRDHHGANFSCRTELDLRPQGLELFENTSAPYQLQTFVLPATPPQLVSPRVLEVDTQGTVVCSLDGLFPVSEAQVHLALGDQRLNPTVTYGNDSFSAKASVSVTAEDEGTQRLTCAVILGNQSQETLQTVTIYSFPAPNVILTKPEVSEGTEVTVKCEAHPRAKVTLNGVPAQPLGPRAQLLLKATPEDNGRSFSCSATLEVAGQLIHKNQTRELRVLYGPRLDERDCPGNWTWPENSQQTPMCQAWGNPLPELKCLKDGTFPLPIGESVTVTRDLEGTYLCRARSTQGEVTRKVTVNVLSPRYEIVIITVVAAAVIMGTAGLSTYLYNRQRKIKKYRLQQAQKGTPMKPNTQATPP
B6: CD80: costimulatory molecule incorporated into DNA vaccines (protein, UniProt P33681 35-288, looked up)
T-lymphocyte activation …: VIHVTKEVKEVATLSCGHNVSVEELAQTRIYWQKEKKMVLTMMSGDMNIWPEYKNRTIFDITNNLSIVILALRPSDEGTYECVVLKYEKDAFKREHLAEVTLSVKADFPTPSISDFEIPTSNIRRIICSTSGGFPEPHLSWLENGEELNAINTTVSQDPETELYAVSSKLDFNMTTNHSFMCLIKYGHLRVNQTFNWNTTKQEHFPDNLLPSWAITLISVNGIFVICCLTYCFAPRCRERRRNERLRRESVRPV

Test system: NF-κB
Assay: Preliminary work: NF-κB induction and APC/DC function
Assay type: cell-based
Settings: not given
For MEKK1: kinase named as NF-κB inducer, the “induction of NF-κB and enhancement of APC/DC function” value was “can induce NF-κB and enhance APC such as DC function”.

Test system: not given
Assay: not given
Settings: molecule incorporated into DNA vaccine; cited from earlier work
In the case of “CTLA4: costimulatory molecule incorporated into DNA vaccines”, the Cellular response is given as “↑proliferation”.
In the case of “GM-CSF: cytokine incorporated into DNA vaccines”, the CTL is given as “↑CTL”.
In the case of “IFNγ: cytokine incorporated into DNA vaccines”, the CTL is given as “↑CTL”.
For “IL-5: cytokine incorporated into DNA vaccines”, the Antibody is given as “↑IgG”.
For “IL-15: cytokine incorporated into DNA vaccines”, the Antibody is given as “IgG?”, the CTL is given as “↑CTL” and the Cellular response is given as “±↑proliferation”.
In the case of “IL-18: cytokine (gene) incorporated into DNA vaccines”, the Antibody is listed as “↑IgG”, the CTL is listed as “↑CTL” and the Cellular response is listed as “↑proliferation”.
In the case of TGF-β, the Antibody is listed as “↑IgG1”.
In the case of B1, the CTL is listed as “↑CTL”.
For B2, the Cellular response is given as “↑IFNγ”.
For B3, the CTL is given as “↑CTL”.
For B4, the CTL is listed as “↑CTL” and the Cellular response is listed as “↑IFNγ”.
In the case of B5, the CTL is listed as “↑CTL”.
For B6, the CTL is given as “↑CTL”.

Test system: mice
Assay: not given
Settings: gene incorporated into allergen DNA vector; cited from earlier work
In the case of “IL-18: cytokine (gene) incorporated into DNA vaccines”, the airway hyperresponsiveness is given as “successfully reverse airway hyperresponsiveness”.

Test system: CD14+ peripheral blood monocytes cultured to DC
Assay: Maturation of monocyte-derived dendritic cells to CD83+ cells
Assay type: cell-based
Settings: 15 ng/ml, within 1 day
Description: CD14^+ peripheral blood monocytes are adhered to tissue culture flasks and cultured in the presence of 1% AB serum, GM-CSF (400 ng/ml) and IL-4 (400 IU/ml) for 7 days. This yields cells with the morphology of DC and a mean of 49% with the CD1a^+ marker which is indicative of the immature form of the DC capable of taking up and presenting antigen. These cells are then matured to CD83^+ cells by the addition of TNFα (15 ng/ml), which enables the DC to present antigen to cytotoxic T-cells. 7% of the cells become CD83^+ within 1 day, but 3 days at least are required for maximum effect. It is possible that monocyte conditioned medium could replace the 1% AB serum but this is probably not desirable.
In the case of TNFα, the “cells becoming CD83+” value is reported as 7%.
